pIC50: −log10 of the molar value. Entries after “also recorded” stand apart in the source; their conditions may differ.
Experiments:
J20 mice = assay: Novel object recognition (NOR), treatment of symptomatic J20 mice; format: in vivo, mouse; details: for NOR behavior: 10 mg/kg; for NOR discrimination index: 25 mg/kg; for NOR deficit: 50 mg/kg IP
Source text: FIG. 8: VX-765 treatment restores cognitive function in J20 mice. (a) Experimental paradigm. Intraperitoneal vehicle-injected wild type (WT+Vehicle; n=13) and J20 mice (J20+Vehicle: n=9), and VX-765-injected J20 mice (J20+VX-765: n=9) mice were behaviourally assessed at 5 different time-points: baseline before treatment (baseline untreated J20 were grouped together; n=18), after 3 IP injections/wk of VX-765 or vehicle (Treatment 1), after 6 additional injections over 2 weeks (Treatment 2), after 4-week Washout period, and after an additional 3 injections in one week (Treatment 3). Mice were sacrificed at 8 months of age after Treatment 3 (b) NOR Discrimination index (Treatment main effect, F(2,20)=85.8, p<0.0001; Time main effect, F(4,80)=4.188, p=0.0039; Treatment×Time interaction, F(8,80)=[…], two-way repeated-measures ANOVA, Dunnett's post-hoc compared to J20+Vehicle). (c) Distance traveled during Open Field task. Data analyzed by repeated measures two-way ANOVA (Treatment main effect, F(2,19)=11.47, p=0.0005; Treatment×Time interaction, F(8,76)=5.69, p<0.0001, two-way repeated-measures ANOVA, Dunnett's post-hoc compared to J20+Vehicle). (d-i) Barnes maze analysis. Learning acquisition (d,g), probe test primary latency and errors (e,h), and target hole preference (f,i); # of pokes of each hole labelled +1 to +9 to the right or −1 to −9 to the left of the target hole during the probe) after Treatment 2 (d-f) and Washout (g-i). Probe tests were analyzed (Treatment 2 primary latency, F(2,52)=5.879, p=0.0050; Treatment 2 primary errors, F(2,52)=9.998, p=0.0002; Washout primary latency, F(2,22)=4.076, p=0.0312; Washout primary errors, F(2,22)=10.84, p=0.0005, ANOVA, Tukey's post-hoc). * p<0.05, ***p<0.001, ****p<0.0001.
[…] The 20-week-old mice were treated per the paradigm in section. VX-765 reverses episodic memory deficits in the J20 mouse.
Anxiety and hyperactivity are monitored in an open-field paradigm, episodic memory with the NOR, spatial memory with the Barnes maze, and short or long term working memory with the Y maze before and after treatments. Repeated measures are acceptable for the NOR, Barnes and Y maze^2-4.
J20 and littermate WT mice (20 wks) were first tested for episodic memory deficits with Novel Object Recognition (NOR) and anxiety and hyperactivity in an open-field paradigm. […] The injections were continued for 2 weeks at 3 injections/week (48 hr intervals between injections and 3 day interval between weeks) and mice retested. […]

mouse Casp11 = biological target: T1, mouse Casp11 (Mus musculus, UniProt P70343); assay: Selectivity against mouse Casp11; format: biochemical; details: recombinant caspases
T1 sequence (P70343 81-266 limits assumed): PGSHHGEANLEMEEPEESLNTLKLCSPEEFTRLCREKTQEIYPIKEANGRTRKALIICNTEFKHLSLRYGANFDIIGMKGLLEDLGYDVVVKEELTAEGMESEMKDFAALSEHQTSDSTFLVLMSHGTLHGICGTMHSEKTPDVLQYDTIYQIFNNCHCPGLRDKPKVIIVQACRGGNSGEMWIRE
T1 sequence (P70343 286-373 limits assumed): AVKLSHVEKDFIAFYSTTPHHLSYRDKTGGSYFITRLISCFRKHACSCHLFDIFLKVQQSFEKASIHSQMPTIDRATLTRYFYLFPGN
Protocol: (§1) FIG. 14: Selectivity and blood brain permeability of VX-765 and VRT-043198. (a-b) IC50 of VX-765 (a) and VRT-043198 (b) against human Casp1-10. (c-d) IC50 of VX-765 (c) and VRT-043198 (d) against mouse Casp1 and Casp11. (e) Blood brain barrier permeability and presence of VX-765 and VRT-043198 in 3 wild type and 4 J20 mice brain cortex and hippocampus and in plasma. Ratios of brain levels to plasma levels are calculated.

mouse recombinant Casp1 = biological target: T2, mouse recombinant Casp1 (Mus musculus, UniProt P29452); assay: Caspase inhibition IC50, mouse recombinant Casp1; format: biochemical; details: read-out: IC50 against mouse Casp1
T2 sequence (P29452 119-296 limits assumed): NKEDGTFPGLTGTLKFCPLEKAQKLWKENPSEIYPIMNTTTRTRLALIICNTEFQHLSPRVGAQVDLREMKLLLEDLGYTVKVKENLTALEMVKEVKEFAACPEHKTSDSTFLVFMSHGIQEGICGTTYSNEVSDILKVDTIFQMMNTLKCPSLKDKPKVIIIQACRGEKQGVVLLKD
T2 sequence (P29452 315-402 limits assumed): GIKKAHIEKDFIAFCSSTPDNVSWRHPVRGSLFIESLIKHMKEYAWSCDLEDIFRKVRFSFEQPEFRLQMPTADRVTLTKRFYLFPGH
Protocol: as §1

**Q.** How did the NOR behavior (J20 mice; Treatment 1 and 2) turn out when `CCO[C@@H]1OC(=O)C[C@@H]1NC(=O)[C@@H]1CCCN1C(=O)[C@@H](NC(=O)c1ccc(N)c(Cl)c1)C(C)(C)C` [VX-765, (S)-1-((S)-2-{[1-(4-amino-3-chloro-phenyl)-methanoyl]-amino}-3,3-dimethyl-butanoyl)-pyrrolidine-2-carboxylic acid ((2R,3S)-2-ethoxy-5-oxo-tetrahydro-furan-3-yl)-amide] was run?
**A.** normalized NOR behavior only after T2

**Q.** And the NOR behavior (J20 mice; Treatment 3)?
**A.** reappeared after T3

**Q.** What about the NOR behavior (J20 mice; washout) of the same molecule?
**A.** washed out

**Q.** What about the NOR discrimination index (J20 mice; Treatment 1) of the same molecule?
**A.** normalized

**Q.** And the NOR discrimination index (J20 mice; Treatment 2)?
**A.** normalized

**Q.** What about the NOR discrimination index (J20 mice; Treatment 3) of the same molecule?
**A.** returned to normal at T3

**Q.** What about the NOR discrimination index (J20 mice; washout) of the same molecule?
**A.** deficits reappeared after WO

**Q.** And the NOR deficit (J20 mice; after 3 injections (Treatment 1))?
**A.** reverted to normal; also recorded: reversed and reached near-normal levels

**Q.** What about the NOR deficit (J20 mice; after 3 more injections (Treatment 3)) of the same molecule?
**A.** attenuated NOR deficits; also recorded: disappeared again after T3

**Q.** What about the NOR deficit (J20 mice; after 4-week washout) of the same molecule?
**A.** NOR deficits reappeared; also recorded: reappeared after the WO period

**Q.** And the NOR deficit (J20 mice; after additional 2 weeks of injections (Treatment 2))?
**A.** continued to perform normally; also recorded: reversed and reached near-normal levels

**Q.** What about the “inhibition of mouse Casp1 compared to mouse Casp11” value (mouse Casp11) of the same molecule?
**A.** strongly inhibited compared to inflammatory mouse Casp11

**Q.** What about the pIC50 (mouse recombinant Casp1) of the same molecule?
**A.** 7.28
